Experimental findings from patent publication US10829473B2, “Modulators of the cystic fibrosis transmembrane conductance regulator protein and methods of use” (AbbVie Overseas S.Á.R.L., priority 2017, dated 2020) are described below.

The assay deals with T1, F508delCFTR (Homo sapiens, UniProt P13569, DEL508-508).
T1 construct: expressed in transfected cells; host or cells: CFBE41o- human lung derived epithelial cells (CFBE41o-F508delCFTR-HRP), doxycycline-inducible
As to the kind of experiment: Cell Surface Expression-Horse Radish Peroxidase (CSE-HRP) Assay.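 On EC50 (with co-corrector): co-corrector chromenyl benzoic acid corrector at 2 or 3 µM.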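 On Maximum % activity (without co-corrector): % of on-plate positive control chromenyl benzoic acid corrector at 2 or 3 µM.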 Type of assay: cell-based. Particulars: for Maximum % activity (with co-corrector) / Emax: maximum at any tested concentration; for Emax: read-out: Maximum % activity (without co-corrector). The essentials: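 Corrector compounds were given as 8-point 3-fold series from 20 or 30 μM, with or without a 2 μM co-corrector, for 18-24 h at 33 °C. Surface HRP was read by luminol luminescence as % of positive control; variable-Hill-slope sigmoidal fitting gave EC50 from triplicate plates.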

Where [1] appears, read: test compound alone, without co-corrector, read-out: EC50 (without co-corrector).
The mark [2] stands for this setting: with co-corrector, read-out: EC50 (with co-corrector).
Where [3] appears, read: test compound with co-corrector.
The mark [4] stands for this setting: test compound without co-corrector.
Where [5] appears, read: test compound with co-corrector, read-out: EC50 (with co-corrector).
Where [6] appears, read: test compound without co-corrector, read-out: EC50 (without co-corrector).

Like-named read-outs stand apart in the source and are kept apart here. Marks after values point to notes of the source that are not given here.

T1 sequence (P13569 with tags, fused parts or gaps DEL508-508): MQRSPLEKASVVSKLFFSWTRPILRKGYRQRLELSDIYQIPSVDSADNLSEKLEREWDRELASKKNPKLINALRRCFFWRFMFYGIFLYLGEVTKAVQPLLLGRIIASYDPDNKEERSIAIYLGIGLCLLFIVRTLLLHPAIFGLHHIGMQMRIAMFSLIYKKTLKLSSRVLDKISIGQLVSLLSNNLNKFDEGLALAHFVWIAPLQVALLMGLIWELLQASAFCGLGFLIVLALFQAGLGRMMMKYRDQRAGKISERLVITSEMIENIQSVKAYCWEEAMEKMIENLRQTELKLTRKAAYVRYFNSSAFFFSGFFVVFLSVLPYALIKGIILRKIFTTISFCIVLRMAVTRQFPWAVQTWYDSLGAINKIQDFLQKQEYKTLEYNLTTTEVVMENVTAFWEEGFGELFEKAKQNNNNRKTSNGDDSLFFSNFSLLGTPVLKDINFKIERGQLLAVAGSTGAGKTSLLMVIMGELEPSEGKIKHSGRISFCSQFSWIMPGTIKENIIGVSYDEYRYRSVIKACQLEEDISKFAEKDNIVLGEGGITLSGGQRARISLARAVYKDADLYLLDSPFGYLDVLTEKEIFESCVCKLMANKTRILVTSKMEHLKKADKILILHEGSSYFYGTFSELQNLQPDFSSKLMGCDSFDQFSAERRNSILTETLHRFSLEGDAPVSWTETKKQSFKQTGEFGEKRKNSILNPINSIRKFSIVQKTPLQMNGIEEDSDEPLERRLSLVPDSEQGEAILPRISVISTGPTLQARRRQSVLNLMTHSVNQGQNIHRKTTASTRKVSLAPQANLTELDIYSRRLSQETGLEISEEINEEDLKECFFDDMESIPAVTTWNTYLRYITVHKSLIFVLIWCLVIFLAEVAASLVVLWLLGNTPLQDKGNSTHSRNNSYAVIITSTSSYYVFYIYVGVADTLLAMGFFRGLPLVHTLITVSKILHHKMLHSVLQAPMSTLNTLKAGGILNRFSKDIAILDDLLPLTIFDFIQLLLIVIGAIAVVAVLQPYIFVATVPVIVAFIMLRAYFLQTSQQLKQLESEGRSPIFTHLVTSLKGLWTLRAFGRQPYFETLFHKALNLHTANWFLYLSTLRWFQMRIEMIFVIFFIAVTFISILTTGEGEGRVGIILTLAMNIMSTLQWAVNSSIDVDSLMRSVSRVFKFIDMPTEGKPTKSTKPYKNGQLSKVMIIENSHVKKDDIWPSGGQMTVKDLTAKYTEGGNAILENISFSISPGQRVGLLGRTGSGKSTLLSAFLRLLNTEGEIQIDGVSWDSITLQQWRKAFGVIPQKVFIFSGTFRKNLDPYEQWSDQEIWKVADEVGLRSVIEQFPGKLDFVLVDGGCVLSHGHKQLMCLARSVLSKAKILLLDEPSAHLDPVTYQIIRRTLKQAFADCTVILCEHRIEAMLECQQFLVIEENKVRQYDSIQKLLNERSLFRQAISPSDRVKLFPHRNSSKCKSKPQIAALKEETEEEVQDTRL

In general, EC50 refers to the concentration that produces a half-maximal response. On to `O=C(NS(=O)(=O)Cc1ccccc1)C1(c2ccc(Cl)cc2)CC1` [Example III-114, 1-(4-chlorophenyl)-N-(phenylmethanesulfonyl)cyclopropane-1-carboxamide], for which the EC50 by setting is: under setting [1], more than 10 µM; under setting [2], 3 to 10 µM. For the setting “with co-corrector”, the “Maximum % activity (with co-corrector)” value is “+ (<150)”. Besides, the Emax (without co-corrector) was less than 50%.

Consider `O=C(NS(=O)(=O)Cc1ccccc1)C1(c2ccc(Cl)c(Cl)c2)CC1` [Example III-115, 1-(3,4-dichlorophenyl)-N-(phenylmethanesulfonyl)cyclopropane-1-carboxamide], for which the EC50 runs as follows: under setting [1], more than 10 µM; under setting [2], more than 10 µM. In addition, the “Maximum % activity (with co-corrector)” value (with co-corrector) was “+ (<150)”. In addition, the Emax (without co-corrector) was less than 50%.

As to `CCC(CC)S(=O)(=O)NC(=O)C1(c2ccccc2)CC1` [Example III-116, N-(pentane-3-sulfonyl)-1-phenylcyclopropane-1-carboxamide], the EC50 reads like this: under setting [1], more than 10 µM; under setting [2], more than 10 µM. Moreover, where the note is “with co-corrector”, the “Maximum % activity (with co-corrector)” value is “+ (<150)”. Besides, under “without co-corrector”, the Emax is less than 50%.

As for `CCCS(=O)(=O)NC(=O)C1(c2cccc(OC)c2)CCOCC1` [Example III-119, 4-(3-methoxyphenyl)-N-(propane-1-sulfonyl)oxane-4-carboxamide], the half-maximal effective concentration (EC50) is more than 10 µM under setting [1] and more than 10 µM under setting [2]. In addition, the “Maximum % activity (with co-corrector)” value (with co-corrector) is listed as “+ (<150)”. In addition, the Emax (without co-corrector) is less than 50%.

For `CCCS(=O)(=O)NC(=O)C1(c2cccc(C)c2)CCOCC1` [Example III-120, 4-(3-methylphenyl)-N-(propane-1-sulfonyl)oxane-4-carboxamide], the concentration giving a half-maximal response (EC50) was more than 10 µM under setting [1] and more than 10 µM under setting [2]. Besides, for the setting “with co-corrector”, the “Maximum % activity (with co-corrector)” value was “+ (<150)”. Further, the Emax (without co-corrector) was less than 50%.

As to `COc1ccc(C2(C(=O)NS(=O)(=O)c3cccc4ccccc34)CCC2)cc1OC` [Example III-121, 1-(3,4-dimethoxyphenyl)-N-(naphthalene-1-sulfonyl)cyclobutane-1-carboxamide], the EC50 was more than 10 µM under setting [1] and more than 10 µM under setting [2]. In addition, the “Maximum % activity (with co-corrector)” value (with co-corrector) is reported as “+ (<150)”. The Emax (without co-corrector) is less than 50%.

Turning to `COc1cccc(-c2cnn(C)c2)c1C1(C(=O)NS(=O)(=O)c2cccc3ncccc23)CC1` [Example III-122, 1-[2-methoxy-6-(1-methyl-1H-pyrazol-4-yl)phenyl]-N-(quinoline-5-sulfonyl)cyclopropane-1-carboxamide], the EC50 under setting [1] fell in the range of 3 to 10 µM and the EC50 under setting [2] fell in the range of 3 to 10 µM. Moreover, for the setting “with co-corrector”, the “Maximum % activity (with co-corrector)” value is listed as “+++ (≥350)”. Further, the Emax (without co-corrector) was more than 150%.

With `COc1cc(C2CCC2)cc(OC)c1C1(C(=O)NS(=O)(=O)c2cccc3ncn(C)c23)CC1` [Example III-123, 1-(4-cyclobutyl-2,6-dimethoxyphenyl)-N-(1-methyl-1H-benzimidazole-7-sulfonyl)cyclopropane-1-carboxamide], the concentration giving a half-maximal response (EC50) was 3 to 10 µM under setting [1] and less than 3 µM under setting [2]. In addition, the “Maximum % activity (with co-corrector)” value (with co-corrector) is listed as “+++ (≥350)”. The Emax (without co-corrector) is more than 150%.

Regarding `COc1ccc(C)nc1C1(C(=O)NS(=O)(=O)c2cccc3ncccc23)CC1` [Example III-124, 1-(3-methoxy-6-methylpyridin-2-yl)-N-(quinoline-5-sulfonyl)cyclopropane-1-carboxamide], the EC50 under setting [1] fell in the range of 3 to 10 µM and the EC50 under setting [2] is 3 to 10 µM. Also, the “Maximum % activity (with co-corrector)” value (with co-corrector) is listed as “+++ (≥350)”. Moreover, where the note is “without co-corrector”, the Emax was in the range of 50 to 150%.

`COc1ccc(C)nc1C1(C(=O)NS(=O)(=O)c2cccc3ccccc23)CC1` [Example III-125, 1-(3-methoxy-6-methylpyridin-2-yl)-N-(naphthalene-1-sulfonyl)cyclopropane-1-carboxamide]: the 50% effective concentration (EC50) was in the range of 3 to 10 µM under setting [1] and 3 to 10 µM under setting [2]. Besides, under “with co-corrector”, the “Maximum % activity (with co-corrector)” value is reported as “+++ (≥350)”. Further, for the setting “without co-corrector”, the Emax was more than 150%.

For the molecule `COc1ccc(C)nc1C1(C(=O)NS(=O)(=O)c2cccc3nc(C)ccc23)CC1` [Example III-126, 1-(3-methoxy-6-methylpyridin-2-yl)-N-(2-methylquinoline-5-sulfonyl)cyclopropane-1-carboxamide], the EC50 was less than 3 µM under setting [1] and less than 3 µM under setting [2]. Besides, the “Maximum % activity (with co-corrector)” value (with co-corrector) is “++ (≥150 and <350)”. For the setting “without co-corrector”, the Emax fell in the range of 50 to 150%.

On to `Cc1ccc(C)c(C2(C(=O)NS(=O)(=O)c3cccc4[nH]ncc34)CC2)c1` [Example III-127, 1-(2,5-dimethylphenyl)-N-(1H-indazole-4-sulfonyl)cyclopropane-1-carboxamide], for which the EC50 reads like this: under setting [1], 3 to 10 µM; under setting [2], less than 3 µM. In addition, the “Maximum % activity (with co-corrector)” value (with co-corrector) is reported as “+++ (≥350)”. Moreover, the Emax (without co-corrector) was more than 150%.

As for `COc1ccc(C2(OC)COC2)cc1C1(C(=O)NS(=O)(=O)c2cccc3ncccc23)CC1` [Example III-128, 1-[2-methoxy-5-(3-methoxyoxetan-3-yl)phenyl]-N-(quinoline-5-sulfonyl)cyclopropane-1-carboxamide], the EC50 is, setting by setting: under setting [1], 3 to 10 µM; under setting [2], 3 to 10 µM. Moreover, for the setting “with co-corrector”, the “Maximum % activity (with co-corrector)” value is “++ (≥150 and <350)”. Also, the Emax (without co-corrector) was less than 50%.

Turning to `[2H]C1(c2ccc(OC)c(C3(C(=O)NS(=O)(=O)c4cccc5ncccc45)CC3)c2)COC1` [Example III-129, 1-{2-methoxy-5-[(3-^2H)oxetan-3-yl]phenyl}-N-(quinoline-5-sulfonyl)cyclopropane-1-carboxamide], the EC50 under setting [1] lay within 3 to 10 µM and the EC50 under setting [2] is 3 to 10 µM. Moreover, the “Maximum % activity (with co-corrector)” value (with co-corrector) is “+++ (≥350)”. Besides, for the setting “without co-corrector”, the Emax was more than 150%.

In the case of `Cc1cnc(OCC(C)C)c(C2(C(=O)NS(=O)(=O)c3cccc4[nH]ncc34)CC2)c1` [Example III-130, N-(1H-indazole-4-sulfonyl)-1-[5-methyl-2-(2-methylpropoxy)pyridin-3-yl]cyclopropane-1-carboxamide], the concentration giving a half-maximal response (EC50) runs as follows: under setting [1], 3 to 10 µM; under setting [2], less than 3 µM. The “Maximum % activity (with co-corrector)” value (with co-corrector) is recorded as “+++ (≥350)”. For the same molecule, the Emax (without co-corrector) was more than 150%.

With `Cc1cnc(OC(C)C)c(C2(C(=O)NS(=O)(=O)c3cccc4[nH]ncc34)CC2)c1` [Example III-131, N-(1H-indazole-4-sulfonyl)-1-{5-methyl-2-[(propan-2-yl)oxy]pyridin-3-yl}cyclopropane-1-carboxamide], the EC50 under setting [1] is 3 to 10 µM and the EC50 under setting [2] fell in the range of 3 to 10 µM. Besides, the “Maximum % activity (with co-corrector)” value (with co-corrector) is recorded as “+++ (≥350)”. For the same molecule, the Emax (without co-corrector) was more than 150%.

For the molecule `CCc1cccc(OC)c1C1(C(=O)NS(=O)(=O)c2cccc3[nH]ncc23)CC1` [Example III-132, 1-(2-ethyl-6-methoxyphenyl)-N-(lH-indazole-4-sulfonyl)cyclopropane-1-carboxamide], the EC50 runs as follows: under setting [1], less than 3 µM; under setting [2], less than 3 µM. The “Maximum % activity (with co-corrector)” value (with co-corrector) is listed as “+++ (≥350)”. Where the note is “without co-corrector”, the Emax is more than 150%.

With `CCc1cccc(OC)c1C1(C(=O)NS(=O)(=O)c2cccc3nc(C)ccc23)CC1` [Example III-133, 1-(2-ethyl-6-methoxyphenyl)-N-(2-methylquinoline-5-sulfonyl)cyclopropane-1-carboxamide], the EC50 is less than 3 µM under setting [1] and less than 3 µM under setting [2]. Further, for the setting “with co-corrector”, the “Maximum % activity (with co-corrector)” value is “+++ (≥350)”. Further, the Emax (without co-corrector) was more than 150%.

Take `CCOc1ccc(C)cc1C1(C(=O)NS(=O)(=O)c2cccc3nc(N(C)C)ccc23)CC1` [Example III-134, N-[2-(dimethylamino)quinoline-5-sulfonyl]-1-(2-ethoxy-5-methylphenyl)cyclopropane-1-carboxamide]: the concentration for a half-maximal effect (EC50) under setting [1] was less than 3 µM and the EC50 under setting [2] was less than 3 µM. Also, where the note is “with co-corrector”, the “Maximum % activity (with co-corrector)” value was “+++ (≥350)”. Moreover, the Emax (without co-corrector) was more than 150%.

In the case of `COc1ncc(C2(C(=O)NS(=O)(=O)c3cccc4ccccc34)CC2)c(OC)n1` [GII-1, 1-(2,4-dimethoxypyrimidin-5-yl)-N-(naphthalene-1-sulfonyl)cyclopropane-1-carboxamide], under setting [3], the “EC50 (with co-corrector)” value is reported as “++^a”; the “Maximum % activity (with co-corrector)” value is “++ (≥150 and <350)”. Under setting [4], the “EC50 (without co-corrector)” value was “++^a” and the Emax was less than 50%.

Consider `CC(C)Oc1ncccc1C1(C(=O)NS(=O)(=O)c2cccc3ccccc23)CC1` [GII-2, N-(naphthalene-1-sulfonyl)-1-{2-[(propan-2-yl)oxy]pyridin-3-yl}cyclopropane-1-carboxamide], for which the “Maximum % activity (with co-corrector)” value under setting [3] is “++ (≥150 and <350)”. Besides, the concentration for a half-maximal effect (EC50) under setting [5] fell in the range of 3 to 10 µM and the EC50 under setting [6] fell in the range of 3 to 10 µM. Under setting [4], the Emax lay in the range of 50 to 150%.

For the molecule `CC(C)Oc1ncccc1C1(C(=O)NS(=O)(=O)c2cccc3ncccc23)CC1` [GII-3, 1-{2-[(propan-2-yl)oxy]pyridin-3-yl}-N-(quinoline-5-sulfonyl)cyclopropane-1-carboxamide], the “Maximum % activity (with co-corrector)” value under setting [3] was “++ (≥150 and <350)”. Moreover, the concentration for a half-maximal effect (EC50) was 3 to 10 µM under setting [5] and 3 to 10 µM under setting [6]. Besides, the Emax under setting [4] was in the range of 50 to 150%.

Regarding `CC(C)Oc1ncccc1C1(C(=O)NS(=O)(=O)c2cccc3c2CCCN3)CC1` [GII-4, 1-{2-[(propan-2-yl)oxy]pyridin-3-yl}-N-(1,2,3,4-tetrahydroquinoline-5-sulfonyl)cyclopropane-1-carboxamide], under setting [3], the “Maximum % activity (with co-corrector)” value was “++ (≥150 and <350)”. Also, the EC50 fell in the range of 3 to 10 µM under setting [5] and 3 to 10 µM under setting [6]. Moreover, the Emax under setting [4] lay in the range of 50 to 150%.
